The source of these data is patent US20250171457A1, “NITROGEN-CONTAINING HETEROCYCLIC COMPOUND HAVING NRF2 ACTIVATION EFFECT” (CHUGAI SEIYAKU KABUSHIKI KAISHA, priority 2022, published 2025).

The subject of the experiment is Nrf2 transcriptional activity (pARE-Luc reporter) in HepG2 cells. The experiment can be described thus: In vitro Nrf2 transcriptional activity measurement by ARE-dependent reporter assay in HepG2 cell. It is filed as cell-based, human. Particulars: Homo sapiens; HepG2 cells transfected with pARE-Luc, 4 hours at 37° C.; luciferase activity of Example 1-54 or Example 17-23 at 3.75 μM defined as 100%. In a few lines:
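Luminescence readout (Bright-Glo) after 4 h, 37° C compound exposure of HepG2 cells carrying the ARE-luciferase vector pGL4.37. Each well converted to % response versus reference compound at 3.75 μM, and EC50 derived from dose-response curves.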
(In general: A reporter such as luciferase makes a cellular process visible.)

By EC50 is commonly meant the concentration giving half of the maximal effect. A lower EC50 goes with greater potency.

In turn, `CC[C@@H](c1cccc2c1C(=O)NN(C(=O)c1c(Cl)cc(-c3cnn(C)c3)cc1Cl)C2)[C@@H](C)C(=O)O` [Compound 17-5, (2R,3R)-3-[2-[2,6-Dichloro-4-(1-methylpyrazol-4-yl)benzoyl]-4-oxo-1,3-dihydrophthalazin-5-yl]-2-methylpentanoic acid] gave a 50% effective concentration (EC50) of 17 nM.

For `CC[C@@H](c1cccc2c1CCN(C(=O)c1c(Cl)cc(-c3cnn(C)c3)cc1Cl)C2)[C@H](C)C(=O)O` [Compound 17-8, (2S,3R)-3-[2-[2,6-Dichloro-4-(1-methylpyrazol-4-yl)benzoyl]-3,4-dihydro-1H-isoquinolin-5-yl]-2-methylpentanoic acid], the EC50 turned out to be 20 nM.

For the compound `CCC(CC(=O)O)c1cccc2c1C(=O)NN(C(=O)c1c(Cl)cc(-c3cnn(C)c3)cc1Cl)C2` (centres unmarked) [Compound 17-9, 3-[2-[2,6-Dichloro-4-(1-methylpyrazol-4-yl)benzoyl]-4-oxo-1,3-dihydrophthalazin-5-yl]pentanoic acid], the EC50 was determined as 21 nM.

For `CC[C@@H](c1cccc2c1CCN(C(=O)c1c(Br)cc(-c3cnn(C)c3)cc1Br)C2)[C@H](C)C(=O)O` [Compound 17-10, (2S,3R)-3-[2-[2,6-Dibromo-4-(1-methylpyrazol-4-yl)benzoyl]-3,4-dihydro-1H-isoquinolin-5-yl]-2-methylpentanoic acid], the 50% effective concentration (EC50) was 21 nM.

On to `Cc1c(C(CC(=O)O)c2cccc3c2CCN(C(=O)c2c(Cl)cc(-c4cnn(C)c4)cc2Cl)C3)ccc2c1nnn2C` (centres unmarked) [Compound 17-15, 3-[2-[2,6-Dichloro-4-(1-methylpyrazol-4-yl)benzoyl]-3,4-dihydro-1H-isoquinolin-5-yl]-3-(1,4-dimethylbenzotriazol-5-yl)propanoic acid], for which the concentration giving a half-maximal response (EC50) is 58 nM. This EC50 is about 2.8-fold higher than that of the compound before.

On to `Cc1c(C(CC(=O)O)c2cccc3c2CON(C(=O)c2c(Cl)cc(-c4cnn(C)c4)cc2Cl)C3)ccc2c1nnn2C` (centres unmarked) [Compound 17-16, 3-[3-[2,6-Dichloro-4-(1-methylpyrazol-4-yl)benzoyl]-1,4-dihydro-2,3-benzoxazin-8-yl]-3-(1,4-dimethylbenzotriazol-5-yl)propanoic acid], for which the response was half-maximal at 74 nM (EC50).

Compound `Cn1cc(-c2cc(Cl)c(C(=O)N3CCc4c(cccc4-c4ccc(C(=O)O)c(N5CCOCC5)c4)C3)c(Cl)c2)cn1` [Compound 17-18, 4-[2-[2,6-Dichloro-4-(1-methylpyrazol-4-yl)benzoyl]-3,4-dihydro-1H-isoquinolin-5-yl]-2-morpholin-4-ylbenzoic acid] had an EC50 of 97 nM.

On to `Cn1cc(-c2cc(Cl)c(C(=O)N3CSc4c(cccc4-c4ccc(C(=O)O)c(N5CCOCC5)c4)C3)c(Cl)c2)cn1` [Compound 17-21, 4-[3-[2,6-Dichloro-4-(1-methylpyrazol-4-yl)benzoyl]-2,4-dihydro-1,3-benzothiazin-8-yl]-2-morpholin-4-ylbenzoic acid], for which the EC50 turned out to be 22 nM.

The compound `COCCOc1cc(Cl)c(C(=O)N2CCc3c(cccc3[C@H](C)[C@H](C)C(=O)O)C2)c(Cl)c1` [Compound 17-23, (2S,3R)-3-[2-[2,6-Dichloro-4-(2-methoxyethoxy)benzoyl]-3,4-dihydro-1H-isoquinolin-5-yl]-2-methylbutanoic acid] returned a concentration for a half-maximal effect (EC50) of 110 nM.

Regarding `C=Cc1cc(C(=O)N2COc3c(cccc3-c3cc(N4CCOCC4)c(C(=O)O)cc3F)C2)c(Cl)cc1OC` [Compound 18-1, 4-[3-(2-Chloro-5-ethenyl-4-methoxybenzoyl)-2,4-dihydro-1,3-benzoxazin-8-yl]-5-fluoro-2-morpholin-4-ylbenzoic acid], the EC50 came to 4.1 nM.

For the compound `COc1cc(Cl)c(C(=O)N2COc3c(cccc3-c3cc(N4CCOCC4)c(C(=O)O)cc3F)C2)cc1C1CC1` [Compound 18-2, 4-[3-(2-Chloro-5-cyclopropyl-4-methoxybenzoyl)-2,4-dihydro-1,3-benzoxazin-8-yl]-5-fluoro-2-morpholin-4-ylbenzoic acid], the response was half-maximal at 5.8 nM (EC50).

As to `COc1cc(Cl)c(C(=O)N2COc3c(cccc3-c3cc(N4CCOCC4)c(C(=O)O)cc3F)C2)cc1C#N` [Compound 18-3, 4-[3-(2-Chloro-5-cyano-4-methoxybenzoyl)-2,4-dihydro-1,3-benzoxazin-8-yl]-5-fluoro-2-morpholin-4-ylbenzoic acid], the midpoint of the response, the EC50, lay at 14 nM.

Compound `CCc1cc(C(=O)N2COc3c(cccc3-c3cc(N4CCOCC4)c(C(=O)O)cc3F)C2)c(Cl)cc1OC` [Compound 18-4, 4-[3-(2-Chloro-5-ethyl-4-methoxybenzoyl)-2,4-dihydro-1,3-benzoxazin-8-yl]-5-fluoro-2-morpholin-4-ylbenzoic acid] showed an EC50 of 3.7 nM.

On to `Cn1cc(-c2cc(Cl)c(C(=O)N3COc4c(cccc4-c4ccc(C(=O)O)c(N5CCSCC5)c4)C3)c(Cl)c2)cn1` [Compound 18-5, 4-[3-[2,6-Dichloro-4-(1-methylpyrazol-4-yl)benzoyl]-2,4-dihydro-1,3-benzoxazin-8-yl]-2-thiomorpholin-4-ylbenzoic acid], for which the EC50 turned out to be 12 nM.

For the compound `CN1CCN(c2cc(Cl)c(C(=O)N3COc4c(cccc4-c4cc(N5CCCC5)c(C(=O)O)cc4F)C3)c(Cl)c2)CC1` [Compound 18-6, 4-[3-[2,6-Dichloro-4-(4-methylpiperazin-1-yl)benzoyl]-2,4-dihydro-1,3-benzoxazin-8-yl]-5-fluoro-2-pyrrolidin-1-ylbenzoic acid], a half-maximal response (EC50) required 10 nM.

`COc1cc2c(c(-c3cc(N4C5CCC4COC5)c(C(=O)O)cc3F)c1)OCN(C(=O)c1c(Cl)cc(N3CC(OC)C3)cc1Cl)C2` [Compound 18-7, 4-[3-[2,6-Dichloro-4-(3-methoxyazetidin-1-yl)benzoyl]-6-methoxy-2,4-dihydro-1,3-benzoxazin-8-yl]-5-fluoro-2-(3-oxa-8-azabicyclo[3.2.1]octan-8-yl)benzoic acid] displayed a concentration giving a half-maximal response (EC50) of 17 nM.

With `Cn1cc(-c2cc(Cl)c(C(=O)N3CNc4c(cccc4-c4cc(N5CCOCC5)c(C(=O)O)cc4F)C3)c(Cl)c2)cn1` [Compound 18-8, 4-[3-[2,6-Dichloro-4-(1-methylpyrazol-4-yl)benzoyl]-2,4-dihydro-1H-quinazolin-8-yl]-5-fluoro-2-morpholin-4-ylbenzoic acid], the EC50 is 2.8 nM. Compared with the last compound, the EC50 is about 6.1-fold lower.

In the case of `Cn1cc(-c2cc(Cl)c(C(=O)N3Cc4cccc(-c5cc(N6CCOCC6)c(C(=O)O)cc5F)c4NC3=O)c(Cl)c2)cn1` [Compound 18-9, 4-[3-[2,6-Dichloro-4-(1-methylpyrazol-4-yl)benzoyl]-2-oxo-1,4-dihydroquinazolin-8-yl]-5-fluoro-2-morpholin-4-ylbenzoic acid], the EC50 is 23 nM.

The compound `O=C(O)c1ccc(-c2cccc3c2OCN(C(=O)c2c(Cl)cc(N4CCC(N5CCOCC5)CC4)cc2Cl)C3)nc1N1CCCCC1` [Compound 18-10, 6-[3-[2,6-Dichloro-4-(4-morpholin-4-ylpiperidin-1-yl)benzoyl]-2,4-dihydro-1,3-benzoxazin-8-yl]-2-piperidin-1-ylpyridine-3-carboxylic acid] displayed a concentration giving a half-maximal response (EC50) of 36 nM. This EC50 lies about 1.6-fold higher than the previous one.

On to `Cn1cc(-c2cc(Cl)c(C(=O)N3CCc4c(cccc4-c4ccc(C(=O)O)c(N5CCCCC5)n4)C3)c(Cl)c2)cn1` [Compound 18-11, 6-[2-[2,6-Dichloro-4-(1-methylpyrazol-4-yl)benzoyl]-3,4-dihydro-1H-isoquinolin-5-yl]-2-piperidin-1-ylpyridine-3-carboxylic acid], for which the EC50 was found to be 310 nM. This EC50 is about 8.6-fold higher than that of the compound before.

In the case of `Cn1cc(-c2cc(Cl)c(C(=O)N3COc4c(ccnc4-c4ccc(C(=O)O)c(N5CCOCC5)c4)C3)c(Cl)c2)cn1` [Compound 18-12, 4-[3-[2,6-Dichloro-4-(1-methylpyrazol-4-yl)benzoyl]-2,4-dihydropyrido[4,3-e][1,3]oxazin-8-yl]-2-morpholin-4-ylbenzoic acid], the EC50 came to 24 nM.

With `Cc1cc(N2CC3(C2)OCC(C)(C)CO3)cc(C)c1C(=O)N1COc2c(cccc2-c2cc(N3C4CCC3COC4)c(C(=O)O)cc2F)C1` [Compound 19-2, 4-[3-[4-(7,7-Dimethyl-5,9-dioxa-2-azaspiro[3.5]nonan-2-yl)-2,6-dimethylbenzoyl]-2,4-dihydro-1,3-benzoxazin-8-yl]-5-fluoro-2-(3-oxa-8-azabicyclo[3.2.1]octan-8-yl)benzoic acid], it took 1.6 nM to reach a half-maximal effect (EC50).

Turning to `C[C@@H]1CN(c2cc(F)c(C(=O)N3COc4c(cccc4-c4cc(N5C6CCC5COC6)c(C(=O)O)cc4F)C3)c(Cl)c2)[C@H](C)CN1C` [Compound 19-3, 4-[3-[2-Chloro-6-fluoro-4-[(2R,5R)-2,4,5-trimethylpiperazin-1-yl]benzoyl]-2,4-dihydro-1,3-benzoxazin-8-yl]-5-fluoro-2-(3-oxa-8-azabicyclo[3.2.1]octan-8-yl)benzoic acid], the response was half-maximal at 1.2 nM (EC50). This EC50 and that of the compound before are within 1.5-fold of each other.

`Cc1cc(N2C[C@@H](C)N(C)C[C@H]2C)cc(Cl)c1C(=O)N1COc2c(cccc2-c2cc(N3C4CCC3COC4)c(C(=O)O)cc2F)C1` [Compound 19-4, 4-[3-[2-Chloro-6-methyl-4-[(2R,5R)-2,4,5-trimethylpiperazin-1-yl]benzoyl]-2,4-dihydro-1,3-benzoxazin-8-yl]-5-fluoro-2-(3-oxa-8-azabicyclo[3.2.1]octan-8-yl)benzoic acid] yielded a concentration for a half-maximal effect (EC50) of 1.9 nM.

Regarding `CC1(C)COC2(CN(c3cc(Cl)c(C(=O)N4COc5c(cccc5-c5cc(N6C7CCC6COC7)c(C(=O)O)cc5F)C4)c(C#N)c3)C2)OC1` [Compound 19-5, 4-[3-[2-Chloro-6-cyano-4-(7,7-dimethyl-5,9-dioxa-2-azaspiro[3.5]nonan-2-yl)benzoyl]-2,4-dihydro-1,3-benzoxazin-8-yl]-5-fluoro-2-(3-oxa-8-azabicyclo[3.2.1]octan-8-yl)benzoic acid], the EC50 was found to be 2.7 nM. This EC50 and that of the compound before are within 1.5-fold of each other.

For `C[C@@H]1CN(c2cnc(C(=O)N3COc4c(cccc4-c4cc(N5C6CCC5COC6)c(C(=O)O)cc4F)C3)c(Cl)c2)[C@H](C)CN1C` [Compound 19-6, 4-[3-[3-Chloro-5-[(2R,5R)-2,4,5-trimethylpiperazin-1-yl]pyridine-2-carbonyl]-2,4-dihydro-1,3-benzoxazin-8-yl]-5-fluoro-2-(3-oxa-8-azabicyclo[3.2.1]octan-8-yl)benzoic acid], the EC50 was 6.3 nM.
